We go through 31 molecules from ChEMBL document CHEMBL1124525, “Hexestrol-linked cytotoxic agents: synthesis and binding affinity for estrogen receptors” (J Med Chem, 1989).

Experiment [1] has as its target T1, Estrogen receptor (Rattus norvegicus) (UniProt P06211+Q62986). Description: Binding affinity to estrogen receptor. The experiment is classed as protein assay.
Experiment [2] addresses T1, Estrogen receptor (Rattus norvegicus). Nature of the experiment: Relative binding affinity for estrogen receptor. It is filed as protein assay.

On to `CC[C@@](C)(c1ccc(O)cc1)[C@H](CCCCN(CCO)CCO)c1ccc(O)cc1` (relative stereo), for which the relative binding affinity (RBA) in experiment [1] is 0.9.
`CC[C@@](C)(c1ccc(O)cc1)[C@H](CCCCOCCO)c1ccc(O)cc1`: the relative binding affinity (RBA) in experiment [1] turned out to be 1.
In the case of `CC[C@@](C)(c1cc(Br)c(O)c(Br)c1)[C@H](CCCCO)c1ccc(O)c(Br)c1`, the relative binding affinity (RBA) in experiment [1] turned out to be 0.1.
Regarding `CC[C@@](C)(c1ccc(O)cc1)[C@H](CCCCOC(C)=O)c1ccc(O)cc1`, the relative binding affinity (RBA) in experiment [1] was 1.
Same read-out and setting: the value for `CC[C@@](C)(c1ccc(O)cc1)[C@H](CCCC(=O)N(CCO)CCO)c1ccc(O)cc1` was 0.2.
On the same count and under the same terms, the value for `CC[C@@](C)(c1ccc(O)cc1)[C@H](CCCCOCCOCCOCCO)c1ccc(O)cc1` was 1; that for `CC[C@@](C)(c1ccc(O)cc1)[C@H](CCCC(=O)NC)c1ccc(O)cc1` was 0.2; that for `CC[C@@](C)(c1ccc(O)cc1)[C@H](CCCCOCCOCCCl)c1ccc(O)cc1` (relative stereo) was 1.
The same measure, in the same setting: the value for `CC[C@@](C)(c1ccc(O)cc1)[C@H](CCCCCl)c1ccc(O)cc1` (relative stereo) was 1.5; that for `CC[C@@](C)(c1ccc(O)cc1)[C@H](CCCCN)c1ccc(O)cc1` (relative stereo) was 2; that for `CC[C@@](C)(c1ccc(O)cc1)[C@H](CCCCC=O)c1ccc(O)cc1` was 1.
As to `CC[C@@](C)(c1ccc(O)cc1)[C@H](CCCCBr)c1ccc(O)cc1` (relative stereo), the relative binding affinity (RBA) in experiment [1] was found to be 1.
Same read-out and setting: the value for `CC[C@@](C)(c1ccc(O)cc1)[C@H](CCCC=O)c1ccc(O)cc1` was 1; that for `CC[C@@](C)(c1ccc(O)cc1)[C@H](CCCCSCCO)c1ccc(O)cc1` (relative stereo) was 0.4; that for `CCCC[C@H](c1ccc(O)cc1)[C@@](C)(CC)c1ccc(O)cc1` (relative stereo) was 1.
Molecule `CC[C@@](C)(c1ccc(O)cc1)[C@H](CCCCO)c1ccc(O)cc1` (relative stereo) came in with a relative binding affinity (RBA) in experiment [1] of 1.5.
Molecule `CC[C@@](C)(c1ccc(O)cc1)[C@H](CCCC(=O)O)c1ccc(O)cc1` gave a relative binding affinity (RBA) in experiment [2] of 0.1.
In experiment [1], `CC[C@@](C)(c1ccc(O)cc1)[C@H](CCCCI)c1ccc(O)cc1` (relative stereo) showed a relative binding affinity (RBA) of 0.2.
On to `CC[C@@](C)(c1ccc(O)cc1)[C@H](CCCCN1CCCOP1(=O)N(CCCl)CCCl)c1ccc(O)cc1` (relative stereo), for which the relative binding affinity (RBA) in experiment [1] was determined as 1.
In turn, `CCSCCCCC(c1ccc(O)cc1)C(C)(CC)c1ccc(O)cc1` (stereo unspecified) returned a relative binding affinity (RBA) in experiment [1] of 0.2.
`CC[C@@](C)(c1ccc(O)cc1)[C@H](CCCC(=O)OC)c1ccc(O)cc1` yielded a relative binding affinity (RBA) in experiment [1] of 0.2.
On the same count and under the same terms, the value for `CC[C@@](C)(c1ccc(O)cc1)[C@H](CCCCNC(=O)N(CCCl)N=O)c1ccc(O)cc1` was 1.
`CC[C@@](C)(c1ccc(O)cc1)[C@H](CCCC(=O)NCCO)c1ccc(O)cc1` yielded a relative binding affinity (RBA) in experiment [1] of 0.1.
With `CC[C@@](C)(c1ccc(O)cc1)[C@H](CCCC(N)=O)c1ccc(O)cc1`, the relative binding affinity (RBA) in experiment [1] amounted to 0.9.
For `C=CCCC[C@H](c1ccc(O)cc1)[C@@](C)(CC)c1ccc(O)cc1` (relative stereo), the relative binding affinity (RBA) in experiment [1] was 1.
`CC[C@](C)(c1ccc(O)cc1)[C@H](CCCCNCCCl)c1ccc(O)cc1` (relative stereo) displayed a relative binding affinity (RBA) in experiment [1] of 1.
The same measure, in the same setting: the value for `CC[C@@](C)(c1ccc(O)cc1)[C@H](CCCCOCCCl)c1ccc(O)cc1` (relative stereo) was 0.3; that for `CC[C@@](C)(c1ccc(O)cc1)[C@H](CCCCOS(C)(=O)=O)c1ccc(O)cc1` was 0.3; that for `CC[C@](C)(c1ccc(O)cc1)[C@H](CCCCN(CCCl)CCCl)c1ccc(O)cc1` (relative stereo) was 2.5.
On to `CC[C@@](C)(c1ccc(O)cc1)[C@H](CCCCOCCOCCO)c1ccc(O)cc1`, for which the relative binding affinity (RBA) in experiment [1] was 1.
Still for that read-out and setting: the value for `CC[C@@](C)(c1ccc(O)cc1)[C@H](CCCCOCCOCCOCCCl)c1ccc(O)cc1` (relative stereo) was 0.5.
